Experimental data from patent US20200147243A1, “LIGAND COMPOUND OF ALPHA7 NICOTINIC ACETYLCHOLINE RECEPTOR AND APPLICATION THEREOF” (BEIJING NORMAL UNIVERSITY, priority 2017, published 2020).

Columns and labels:
[1] = Lipid water partition coefficient (n-octanol / PBS pH 7.4); assay type: physicochemical; settings: read-out: lipid water partition coefficient log P
[2] = In vitro stability experiment in fetal bovine serum and normal saline; assay type: in vitro ADME
Method: The in vitro stability of the radioligand is of great importance for its further in vivo studies. Generally, the in vitro stability study is carried out in normal saline and animal serum. A specific method was as follows: respectively incubating 10 μCi of HPLC-purified radioligand [^18F] II-15 and 100 μL of fetal bovine serum at 37° C. for 1 h and 2 h, adding 200 μL of acetonitrile thereto after finishing the incubation to fully precipitate proteins, then centrifuging at […] for 5 min (7000 rpm), collecting supernatant, filtering the supernatant with filter membrane, and then performing HPLC analysis on 100 μL of the filtered supernatant; incubating 10 μCi of HPLC-purified radioligand [^18F] II-15 with 100 μL of normal saline at room temperature for 1 h and 2 h, respectively, and then directly analyzing by HPLC.

[3] = Rat PET imaging (micro-PET/CT); assay type: in vivo; settings: female CD-1 rats, images at 15, 30, 60 min
Method: The radioligand [^18F] II-15 (0.3 mL, 200 μCi) was injected into bodies of female CD-1 rats (180-200 g) in a manner of tail vein injection, then the rats were anesthetized with 3% isoflurane to be coma, and the rats were fixed in a prone posture on a micro-PET/CT imaging instrument (Super Argus PET 4R L/CT 180) for small animals, maintaining the rats in an anesthetic state by employing 1% isoflurane in the scanning imaging process. Image acquisition was carried out respectively 15 min, 30 min and 60 min after the administration, to observe the distribution condition of [^18F] II-15 in the brains of the rats.

O=C1c2cc(N3CCN4CCC3CC4)ccc2-c2cccc([18F])c21 [[^18F] II-15]
logP [1]: 1.64 ± 0.12 | radiochemical purity after incubation ([2]; fetal calf serum, 37° C., 1 h): greater than 98% | radiochemical purity after incubation ([2]; fetal calf serum, 37° C., 2 h): greater than 98% | radiochemical purity after incubation ([2]; normal saline, room temperature, 1 h): greater than 98% | radiochemical purity after incubation ([2]; normal saline, room temperature, 2 h): greater than 98% | time of highest brain uptake in PET images [3]: 15 min
